Measured values published in PMC8954831, “Design, Synthesis, Molecular Docking, and Biological Evaluation of Pyrazole Hybrid Chalcone Conjugates as Potential Anticancer Agents and Tubulin Polymerization Inhibitors” (Pharmaceuticals, 2022).
Like-named read-outs stand apart in the source and are kept apart here.

Tests used:
[1] = system: MCF-7 (breast cancer cell line); test: In vitro cytotoxicity, MTT assay, MCF-7; assay type: cell-based, human
Experimental: (§1) The resultant compounds were tested for their in vitro cytotoxic activity by MTT assay against breast (MCF-7), cervical (SiHa), and prostate (PC-3) cancer cell lines, and the human embryonic kidney cell line (HEK). […] Subsequently, SAR studies were done by investigating the effect of substituents on cytotoxic activity.
(§2) Human cervical cancer cell line SiHa, human breast cancer cell line MCF-7, human prostate cancer cell line PC-3, and human embryonic kidney HEK-293 cells were procured from the National Centre for Cell Sciences (NCCS) Pune, India. In this experiment, antibiotics (100 units/mL penicillin and 100 mg L^−1 streptomycin were grown as a monolayer culture in Dulbecco’s modified Eagle’s medium containing 10% fetal bovine serum) were cultured in a humidified atmosphere of 5% CO2 at 37 °C in T-75 flasks and subcultured twice a week.
(§3) The cytotoxic effects of the selected compounds were evaluated by MTT assay on the above-mentioned cell lines. Initially, 2 × 10^4 cells/well were seeded into 96-well plates (150 µL/well) in triplicates and allowed to grow. The cells were incubated for 24 h and subsequently treated with varying concentrations of the compounds. After 48 h, the cells were incubated with 20 μL of MTT (5 mg/mL in PBS) in a fresh medium for 4 h at 37 °C. MTT is a metabolic substrate that is reduced to give formazan crystals, which were solubilized in DMSO (150 µL/well) and analyzed by reading the absorbance at 540 nm after 15 min of the incubation period on the iMark Microplate Reader (Bio-Rad). Percentage viability and IC50 values were used to determine the relative absorbance of treated versus control (untreated) cells.

[2] = system: SiHa (cervical cancer cell line); test: In vitro cytotoxicity, MTT assay, SiHa; assay type: cell-based; conditions: Homo sapiens, 48 h, read-out: IC50 SiHa
Experimental: as §1, §2, §3

[3] = system: PC-3 (prostate cancer cell line); test: In vitro cytotoxicity, MTT assay, PC-3; assay type: cell-based; conditions: Homo sapiens, 48 h, read-out: IC50 PC3
Experimental: as §1, §2, §3

[4] = system: HEK-293 (human embryonic kidney cells); test: In vitro cytotoxicity, MTT assay, HEK-293 normal cells; assay type: cell-based; conditions: for IC50: read-out: IC50 HEK-293
Experimental: as §1, §2, §3

[5] = molecular target: tubulin (purified brain tubulin) (Sus scrofa, UniProt P02550+P02554); test: In vitro tubulin polymerization assay (fluorescence); assay type: biochemical; conditions: for inhibition at 10 µM: read-out: % Inhibition of Tubulin Polymerization at 10 µM; for inhibition at 3 µM: read-out: % Inhibition of Tubulin Polymerization
Experimental: The α and β tubulin subunits are recognized by heterodimers and self-assemble into a stable microtubule in a time-dependent manner. Assessment of the inhibitory effect of new pyrazolic chalcone conjugates on tubulin polymerization was also carried out. The progression of tubulin polymerization was thus examined by monitoring the increase in the fluorescence intensity at 450 nm (excitation wavelength of 360 nm) in a 384-plate for 1 h at 37 °C with and without the conjugate at 10 µM concentration. CA-4 (6 µM) and Vincristine (3 µM) were used as the positive control, whereas paclitaxel (3 µM) was used as the negative control.
Tubulin polymerization is a dynamic process by enhancement of fluorescence intensity due to the combination of a fluorescent reporter into the microtubules as polymerization occurs. Tubulin polymerization was performed by using a purified brain tubulin polymerization kit purchased from Cytoskeleton (BK110P, Denver, CO, USA). The tubulin polymerization assay was monitored by the increase in fluorescence over a 60 min period at 37 °C, with excitation at 360 nm and emission at 450 nm. The final buffer concentration for tubulin polymerization contained 80 mM PIPES, pH 6.9; 2 mM MgCl2; 0.5 mM EGTA; […]; and 15% glycerol. Firstly, 5 µL of the test compounds (final concentration of 10 µM) was added and then warmed to 37 °C for 1 min. The reaction was initiated by adding 50 µL of the tubulin reaction mix as specified for 6 min.

[6] = Homo sapiens, MCF7, MTT, 48 h, breast cancer, read-out: IC50 MCF-7
[7] = HEK293, MTT, 48 h, human normal cell line

tubulin (purified brain tubulin), sequence (P02550 whole entry): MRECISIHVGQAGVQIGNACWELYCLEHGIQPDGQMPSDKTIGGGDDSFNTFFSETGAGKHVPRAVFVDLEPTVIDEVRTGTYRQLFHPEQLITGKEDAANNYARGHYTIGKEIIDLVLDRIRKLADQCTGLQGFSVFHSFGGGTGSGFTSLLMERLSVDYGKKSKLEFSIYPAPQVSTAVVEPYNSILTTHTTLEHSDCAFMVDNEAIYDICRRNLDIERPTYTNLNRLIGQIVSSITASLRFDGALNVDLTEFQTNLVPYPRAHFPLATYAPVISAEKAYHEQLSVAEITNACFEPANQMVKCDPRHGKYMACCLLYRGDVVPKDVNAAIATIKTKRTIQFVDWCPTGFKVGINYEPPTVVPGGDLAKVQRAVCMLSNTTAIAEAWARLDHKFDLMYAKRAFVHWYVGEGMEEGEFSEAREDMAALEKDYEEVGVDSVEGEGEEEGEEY
tubulin (purified brain tubulin), sequence (P02554 whole entry): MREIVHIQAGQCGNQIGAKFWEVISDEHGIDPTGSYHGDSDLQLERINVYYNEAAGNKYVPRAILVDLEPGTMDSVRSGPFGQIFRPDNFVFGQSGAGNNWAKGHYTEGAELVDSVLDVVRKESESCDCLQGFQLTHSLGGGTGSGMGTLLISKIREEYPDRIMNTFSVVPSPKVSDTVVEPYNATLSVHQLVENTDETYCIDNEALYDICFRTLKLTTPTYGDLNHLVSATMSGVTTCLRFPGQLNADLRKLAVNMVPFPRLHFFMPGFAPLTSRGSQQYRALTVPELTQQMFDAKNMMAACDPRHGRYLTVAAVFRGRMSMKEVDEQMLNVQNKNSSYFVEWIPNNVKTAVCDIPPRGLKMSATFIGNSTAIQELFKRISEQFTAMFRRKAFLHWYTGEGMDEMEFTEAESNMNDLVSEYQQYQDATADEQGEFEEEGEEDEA

Compound | melting point [°C] | IC50 [1, 6] [µM] | IC50 ([2]; MTT, cervical cancer) [µM] | IC50 ([3]; MTT, prostate cancer) [µM] | IC50 [4, 7] [µM] | inhibition at 10 µM [5] [%] | further results
O=C(/C=C/c1cn(-c2ccccc2)nc1-c1ccc(OCc2ccccc2)cc1)c1cccc([N+](=O)[O-])c1 [Compound 5c, (E)-3-(3-(4-(benzyloxy)phenyl)-1-phenyl-1H-pyrazol-4-yl)-1-(3-nitrophenyl)prop-2-en-1-one] | 203 to 205 |  |  |  |  |  | 
O=C(/C=C/c1cn(-c2ccccc2)nc1-c1ccc(OCc2ccccc2)cc1)c1ccc(Cl)cc1 [Compound 5e, (E)-3-(3-(4-(benzyloxy)phenyl)-1-phenyl-1H-pyrazol-4-yl)-1-(4-chlorophenyl)prop-2-en-1-one] |  | 11.5 ± 1.62 | 12.3 ± 1.32 | 9.68 ± 1.42 | > 50 | 48.4 | 
O=C(/C=C/c1cn(-c2ccccc2)nc1-c1ccc(OCc2ccccc2)cc1)c1ccc(F)cc1 [Compound 5f, (E)-3-(3-(4-(benzyloxy)phenyl)-1-phenyl-1H-pyrazol-4-yl)-1-(4-fluorophenyl)prop-2-en-1-one] | 168 to 170 |  |  |  |  |  | 
COc1ccc(/C=C\c2cc(OC)c(OC)c(OC)c2)cc1O [Combretastatin A-4, reference compound] |  |  |  |  |  |  | IC50 ([1]; Homo sapiens, MCF7, 48 h, read-out: IC50 MCF-7, MTT, 48 h, breast cancer): 4.12 to 5.23 µM; IC50 ([1]; read-out: IC50 MCF-7, MTT, 48 h, breast cancer, listed as CA-4): 4.12 ± 0.38 µM; IC50 [2]: 5.23 ± 0.85 µM; IC50 [3]: 3.86 ± 0.39 µM; IC50 ([4]; Homo sapiens, HEK293, 48 h): 19.2 ± 1.65 µM
O=C(/C=C/c1cn(-c2ccccc2)nc1-c1ccc(OCc2ccccc2)cc1)c1ccccc1Cl [Compound 5b, (E)-3-(3-(4-(benzyloxy)phenyl)-1-phenyl-1H-pyrazol-4-yl)-1-(2-chlorophenyl)prop-2-en-1-one] | 182 to 184 |  |  |  |  |  | 
O=C(/C=C/c1cn(-c2ccccc2)nc1-c1ccc(OCc2ccccc2)cc1)c1ccc(Cl)c(Cl)c1 [Compound 5l, (E)-3-(3-(4-(benzyloxy)phenyl)-1-phenyl-1H-pyrazol-4-yl)-1-(3,4-dichlorophenyl)prop-2-en-1-one] | 243 to 245 | 8.23 ± 1.45 | 11.7 ± 2.83 | 5.84 ± 1.65 | > 50 | 55.2 | 
O=C(/C=C/c1cn(-c2ccccc2)nc1-c1ccc(OCc2ccccc2)cc1)c1cccc(O)c1 [Compound 5d, (E)-3-(3-(4-(benzyloxy)phenyl)-1-phenyl-1H-pyrazol-4-yl)-1-(3-hydroxyphenyl)prop-2-en-1-one] | 184 to 186 | 4.1 ± 1.12 | 4.85 ± 0.89 | 2.97 ± 0.88 | > 50 | 49.8 | 
O=C(/C=C/c1cn(-c2ccccc2)nc1-c1ccc(OCc2ccccc2)cc1)c1ccc(O)cc1O [Compound 5n, (E)-3-(3-(4-(benzyloxy)phenyl)-1-phenyl-1H-pyrazol-4-yl)-1-(2,4-dihydroxyphenyl)prop-2-en-1-one] | 176 to 178 | 6.98 ± 1.12 | 3.6 ± 0.45 | 3.56 ± 0.63 | > 50 | 47.6 | 
O=C(/C=C/c1cn(-c2ccccc2)nc1-c1ccc(OCc2ccccc2)cc1)c1ccc(Cl)cc1Cl [Compound 5m, (E)-3-(3-(4-(benzyloxy)phenyl)-1-phenyl-1H-pyrazol-4-yl)-1-(2,4dichlorophenyl)prop-2-en-1-one] | 192 to 194 | 17.1 ± 2.25 | 6.46 ± 1.52 | 11.2 ± 1.44 | > 50 | 33.8 | 
O=C(/C=C/c1cn(-c2ccccc2)nc1-c1ccc(OCc2ccccc2)cc1)c1ccc(C(F)(F)F)cc1 [Compound 5r, (E)-3-(3-(4-(benzyloxy)phenyl)-1-phenyl-1H-pyrazol-4-yl)-1-(4-(trifluoromethyl)Phenyl)prop-2-en-1-one] | 186 to 188 | 14.8 ± 2.76 | > 50 | > 50 | 38.3 ± 1.72 | 31.5 | 
COc1ccc(C(=O)/C=C/c2cn(-c3ccccc3)nc2-c2ccc(OCc3ccccc3)cc2)cc1 [Compound 5k, (E)-3-(3-(4-(benzyloxy)phenyl)-1-phenyl-1H-pyrazol-4-yl)-1-(4-methoxyphenyl)prop-2-en-1-one] | 187 to 189 | 7.23 ± 0.74 | 5.65 ± 0.71 | 5.45 ± 0.94 | > 50 | 32.8 | 
COc1ccc(C(=O)/C=C/c2cn(-c3ccccc3)nc2-c2ccc(OCc3ccccc3)cc2)c(OC)c1 [Compound 5p, (E)-3-(3-(4-(benzyloxy)phenyl)-1-phenyl-1H-pyrazol-4-yl)-1-(2,4-dimethoxyphenyl)prop-2-en-1-one] | 226 to 228 | 3.45 ± 1.28 | 4.98 ± 0.54 | 6.52 ± 1.23 | > 50 | 51.1 | 
O=C(/C=C/c1cn(-c2ccccc2)nc1-c1ccc(OCc2ccccc2)cc1)c1ccc(O)cc1 [Compound 5h, (E)-3-(3-(4-(benzyloxy)phenyl)-1-phenyl-1H-pyrazol-4-yl)-1-(4-hydroxyphenyl)prop-2-en-1-one] | 167 to 169 |  |  |  |  |  | 
O=C(/C=C/c1cn(-c2ccccc2)nc1-c1ccc(OCc2ccccc2)cc1)c1ccc([N+](=O)[O-])cc1 [Compound 5i, (E)-3-(3-(4-(benzyloxy)phenyl)-1-phenyl-1H-pyrazol-4-yl)-1-(4-nitrophenyl)prop-2-en-1-one] | 223 to 225 | 42.7 ± 0.34 | 34.5 ± 0.9 | 13.1 ± 1.6 | 45.2 ± 2.6 | 28.4 | 
COc1ccc(C(=O)/C=C/c2cn(-c3ccccc3)nc2-c2ccc(OCc3ccccc3)cc2)cc1OC [Compound 5o, (E)-3-(3-(4-(benzyloxy)phenyl)-1-phenyl-1H-pyrazol-4-yl)-1-(3,4-dimethoxyphenyl)prop-2-en-1-one] | 206 to 208 | 2.13 ± 0.8 | 4.34 ± 0.98 | 4.46 ± 0.53 | > 50 | 66.4 | toxicity to the HEK cells ([4]; in words): did not exhibit significant toxicity
COc1ccc(C(=O)/C=C/c2cn(-c3ccccc3)nc2-c2ccc(OCc3ccccc3)cc2)c(Br)c1 [Compound 5q, (E)-3-(3-(4-(benzyloxy)phenyl)-1-phenyl-1H-pyrazol-4-yl)-1-(2-bromo-4-methoxyphenyl)prop-2-en-1-one] | 174 to 176 |  |  |  |  |  | 
CC(=O)O[C@H]1C(=O)[C@@]2(C)[C@H]([C@H](OC(=O)c3ccccc3)[C@]3(O)C[C@H](OC(=O)[C@H](O)[C@@H](NC(=O)c4ccccc4)c4ccccc4)C(C)=C1C3(C)C)[C@]1(OC(C)=O)CO[C@@H]1C[C@@H]2O [Paclitaxel, paclitaxel, reference compound] |  |  |  |  |  |  | inhibition at 3 µM [5]: -25.7%
Cc1ccc(C(=O)/C=C/c2cn(-c3ccccc3)nc2-c2ccc(OCc3ccccc3)cc2)cc1 [Compound 5j, (E)-3-(3-(4-(benzyloxy)phenyl)-1-phenyl-1H-pyrazol-4-yl)-1-(p-tolyl)prop-2-en-1-one] | 205 to 207 |  |  |  |  |  | 
CC[C@]1(O)C[C@H]2CN(CCc3c([nH]c4ccccc34)[C@@](C(=O)OC)(c3cc4c(cc3OC)N(C=O)[C@H]3[C@@](O)(C(=O)OC)[C@H](OC(C)=O)[C@]5(CC)C=CCN6CC[C@]43[C@@H]65)C2)C1 [Vincristine, reference compound] |  |  |  |  |  |  | inhibition at 3 µM [5]: 75.5%
O=C(/C=C/c1cn(-c2ccccc2)nc1-c1ccc(OCc2ccccc2)cc1)c1ccc(Br)cc1 [Compound 5g, (E)-3-(3-(4-(benzyloxy)phenyl)-1-phenyl-1H-pyrazol-4-yl)-1-(4-bromophenyl)prop-2-en-1-one] | 178 to 180 |  |  |  |  |  | 
